Reference: ChEMBL document CHEMBL5442741, “ASAP - In vitro kinase profile” (2024)
Where “and” joins values, the source holds several entries; their conditions need not be identical. Equal entries are not always repeated.

What was measured:
[1] = biological target: T1, Eukaryotic elongation factor 2 kinase (Homo sapiens) (UniProt O00418); assay: Enzymatic radiometric [Km ATP] KinaseProfiler LeadHunter assay, kinase: eEF-2K, catalogue number: 14-654KP The assay has been performed by Eurofins Discovery.; conditions: ATP concentration 15.0 uM, Test compound concentration 10.0 uM
T1 sequence (whole entry): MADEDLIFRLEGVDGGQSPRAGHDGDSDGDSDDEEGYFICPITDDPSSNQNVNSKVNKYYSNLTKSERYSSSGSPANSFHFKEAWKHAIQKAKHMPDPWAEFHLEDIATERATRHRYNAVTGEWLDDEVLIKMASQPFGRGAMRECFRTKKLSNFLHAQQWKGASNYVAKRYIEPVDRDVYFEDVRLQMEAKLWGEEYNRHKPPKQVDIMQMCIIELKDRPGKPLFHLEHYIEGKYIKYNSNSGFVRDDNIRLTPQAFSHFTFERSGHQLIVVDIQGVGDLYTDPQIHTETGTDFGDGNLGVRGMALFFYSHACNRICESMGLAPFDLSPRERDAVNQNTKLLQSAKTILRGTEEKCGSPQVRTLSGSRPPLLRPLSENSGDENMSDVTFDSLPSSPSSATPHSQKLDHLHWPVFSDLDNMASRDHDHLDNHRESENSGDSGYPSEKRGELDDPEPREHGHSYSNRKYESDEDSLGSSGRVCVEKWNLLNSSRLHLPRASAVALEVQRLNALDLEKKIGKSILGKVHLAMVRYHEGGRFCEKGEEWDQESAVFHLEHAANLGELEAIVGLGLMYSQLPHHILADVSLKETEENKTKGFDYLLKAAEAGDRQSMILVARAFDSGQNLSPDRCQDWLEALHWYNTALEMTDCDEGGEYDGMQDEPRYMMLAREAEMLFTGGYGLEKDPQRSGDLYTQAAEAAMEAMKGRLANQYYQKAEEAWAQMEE

[2] = biological target: Ribosomal protein S6 kinase beta-1 (Homo sapiens) (UniProt P23443); assay: Enzymatic radiometric [Km ATP] KinaseProfiler LeadHunter assay, kinase: p70S6K, catalogue number: 14-486KP The assay has been performed by Eurofins Discovery.; conditions: ATP concentration 15.0 uM, Test compound concentration 10.0 uM
[3] = biological target: PI3-kinase p110-delta/p85-alpha (Homo sapiens) (UniProt P27986+O00329); assay: Enzymatic radiometric [Km ATP] KinaseProfiler LeadHunter assay, kinase: PI3 Kinase (p110-delta/p85-alpha), catalogue number: 14-604KP The assay has been performed by Eurofins Discovery.; type: protein-complex assay; conditions: ATP concentration 200.0 uM, Test compound concentration 10.0 uM
[4] = biological target: T2, Interleukin-1 receptor-associated kinase 4 (Homo sapiens) (UniProt Q9NWZ3); assay: Enzymatic radiometric [Km ATP] KinaseProfiler LeadHunter assay, kinase: IRAK4, catalogue number: 14-599KP The assay has been performed by Eurofins Discovery.; conditions: ATP concentration 200.0 uM, Test compound concentration 10.0 uM
T2 sequence (whole entry): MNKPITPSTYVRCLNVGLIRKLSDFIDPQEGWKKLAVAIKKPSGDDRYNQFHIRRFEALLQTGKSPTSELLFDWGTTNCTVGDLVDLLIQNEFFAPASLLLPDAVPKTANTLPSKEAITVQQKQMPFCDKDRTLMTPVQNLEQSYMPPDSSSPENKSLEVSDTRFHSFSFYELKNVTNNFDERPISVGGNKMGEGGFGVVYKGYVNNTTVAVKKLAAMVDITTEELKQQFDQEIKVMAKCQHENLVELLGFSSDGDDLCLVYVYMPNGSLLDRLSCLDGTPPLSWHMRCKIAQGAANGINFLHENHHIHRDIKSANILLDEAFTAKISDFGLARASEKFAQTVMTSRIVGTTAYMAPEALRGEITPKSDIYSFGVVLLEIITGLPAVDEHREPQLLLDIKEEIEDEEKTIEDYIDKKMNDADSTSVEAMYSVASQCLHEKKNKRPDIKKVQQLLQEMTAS

[5] = biological target: CDK7/Cyclin H/MNAT1 (Homo sapiens) (UniProt P51946+P50613+P51948); assay: Enzymatic radiometric [Km ATP] KinaseProfiler LeadHunter assay, kinase: CDK7/cyclinH/MAT1, catalogue number: 14-476KP The assay has been performed by Eurofins Discovery.; type: protein-complex assay; conditions: ATP concentration 90.0 uM, Test compound concentration 10.0 uM
[6] = biological target: Ephrin type-A receptor 5 (Homo sapiens) (UniProt P54756); assay: Enzymatic radiometric [Km ATP] KinaseProfiler LeadHunter assay, kinase: EphA5, catalogue number: 14-639KP The assay has been performed by Eurofins Discovery.; conditions: ATP concentration 10.0 uM, Test compound concentration 10.0 uM
Chain of Ephrin type-A receptor 5 (Homo sapiens) (P54756 whole entry): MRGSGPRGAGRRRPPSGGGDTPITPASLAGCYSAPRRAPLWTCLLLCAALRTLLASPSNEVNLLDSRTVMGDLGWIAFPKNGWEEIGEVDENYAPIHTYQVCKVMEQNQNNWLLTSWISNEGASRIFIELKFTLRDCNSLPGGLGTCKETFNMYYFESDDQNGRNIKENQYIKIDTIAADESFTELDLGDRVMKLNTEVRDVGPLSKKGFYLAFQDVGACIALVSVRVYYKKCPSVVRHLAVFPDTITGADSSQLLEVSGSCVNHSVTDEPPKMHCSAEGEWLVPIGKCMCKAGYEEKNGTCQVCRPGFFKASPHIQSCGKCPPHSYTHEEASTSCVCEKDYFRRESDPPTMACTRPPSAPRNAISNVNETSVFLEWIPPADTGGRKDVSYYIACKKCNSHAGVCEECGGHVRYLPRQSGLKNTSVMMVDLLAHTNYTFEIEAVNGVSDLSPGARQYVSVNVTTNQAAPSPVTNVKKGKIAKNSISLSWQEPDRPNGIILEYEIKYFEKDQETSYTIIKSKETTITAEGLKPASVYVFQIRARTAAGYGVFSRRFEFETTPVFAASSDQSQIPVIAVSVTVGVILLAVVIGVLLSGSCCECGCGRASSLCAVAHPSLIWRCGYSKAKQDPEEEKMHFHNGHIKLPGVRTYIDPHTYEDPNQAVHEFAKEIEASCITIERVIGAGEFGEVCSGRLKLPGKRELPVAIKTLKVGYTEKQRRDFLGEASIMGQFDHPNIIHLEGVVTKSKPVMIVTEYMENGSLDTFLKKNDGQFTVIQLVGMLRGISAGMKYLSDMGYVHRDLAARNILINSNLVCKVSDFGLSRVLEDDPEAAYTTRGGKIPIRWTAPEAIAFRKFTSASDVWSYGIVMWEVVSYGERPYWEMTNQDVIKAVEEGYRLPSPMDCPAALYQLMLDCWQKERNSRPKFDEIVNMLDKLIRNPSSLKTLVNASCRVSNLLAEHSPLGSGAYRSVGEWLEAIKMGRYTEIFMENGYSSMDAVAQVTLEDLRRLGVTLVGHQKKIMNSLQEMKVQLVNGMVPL

[7] = biological target: Serine/threonine-protein kinase PLK3 (Homo sapiens) (UniProt Q9H4B4); assay: Enzymatic radiometric [Km ATP] KinaseProfiler LeadHunter assay, kinase: Plk3, catalogue number: 14-572KP The assay has been performed by Eurofins Discovery.; conditions: ATP concentration 70.0 uM, Test compound concentration 10.0 uM
[8] = biological target: ALK tyrosine kinase receptor (Homo sapiens) (UniProt Q9UM73); assay: Enzymatic radiometric [Km ATP] KinaseProfiler LeadHunter assay, kinase: ALK, catalogue number: 14-555KP The assay has been performed by Eurofins Discovery.; conditions: ATP concentration 200.0 uM, Test compound concentration 10.0 uM
[9] = biological target: MAP kinase-activated protein kinase 2 (Homo sapiens) (UniProt P49137); assay: Enzymatic radiometric [Km ATP] KinaseProfiler LeadHunter assay, kinase: MAPKAP-K2, catalogue number: 14-337KP The assay has been performed by Eurofins Discovery.; conditions: ATP concentration 90.0 uM, Test compound concentration 10.0 uM
[10] = biological target: Tyrosine-protein kinase ABL1 (Homo sapiens) (UniProt P00519); assay: Enzymatic radiometric [Km ATP] KinaseProfiler LeadHunter assay, kinase: Abl, catalogue number: 14-529KP The assay has been performed by Eurofins Discovery.; conditions: ATP concentration 45.0 uM, Test compound concentration 10.0 uM
Chain of Tyrosine-protein kinase ABL1 (Homo sapiens) (P00519 whole entry): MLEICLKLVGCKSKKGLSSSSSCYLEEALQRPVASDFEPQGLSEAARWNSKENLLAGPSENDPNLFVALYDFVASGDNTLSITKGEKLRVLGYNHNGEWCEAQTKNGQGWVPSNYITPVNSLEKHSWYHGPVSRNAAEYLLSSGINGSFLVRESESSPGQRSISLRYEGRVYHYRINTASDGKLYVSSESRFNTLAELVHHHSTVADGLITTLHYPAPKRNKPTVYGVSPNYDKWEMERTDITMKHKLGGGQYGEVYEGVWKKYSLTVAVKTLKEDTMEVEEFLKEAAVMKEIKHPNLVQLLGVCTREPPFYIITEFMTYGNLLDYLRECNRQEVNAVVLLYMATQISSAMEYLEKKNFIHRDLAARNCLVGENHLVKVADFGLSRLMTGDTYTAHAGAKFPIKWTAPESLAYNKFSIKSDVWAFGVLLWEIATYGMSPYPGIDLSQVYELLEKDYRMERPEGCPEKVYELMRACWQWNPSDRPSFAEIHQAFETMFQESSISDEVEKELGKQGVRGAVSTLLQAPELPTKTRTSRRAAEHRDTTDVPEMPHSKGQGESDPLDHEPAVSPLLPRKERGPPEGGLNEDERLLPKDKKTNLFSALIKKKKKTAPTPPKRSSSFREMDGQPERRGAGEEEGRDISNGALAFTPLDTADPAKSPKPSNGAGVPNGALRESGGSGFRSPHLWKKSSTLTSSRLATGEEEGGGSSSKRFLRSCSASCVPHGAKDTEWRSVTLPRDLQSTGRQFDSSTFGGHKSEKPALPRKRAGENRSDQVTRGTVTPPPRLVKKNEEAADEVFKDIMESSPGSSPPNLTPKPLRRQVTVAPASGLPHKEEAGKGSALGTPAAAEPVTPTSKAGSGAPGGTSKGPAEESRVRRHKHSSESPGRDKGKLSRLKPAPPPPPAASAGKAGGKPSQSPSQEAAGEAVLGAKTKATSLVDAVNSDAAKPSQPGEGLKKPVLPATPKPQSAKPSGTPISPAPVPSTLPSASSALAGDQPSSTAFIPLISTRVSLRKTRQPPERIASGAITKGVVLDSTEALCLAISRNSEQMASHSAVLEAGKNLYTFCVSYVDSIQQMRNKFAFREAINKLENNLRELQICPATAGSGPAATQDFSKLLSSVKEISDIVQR

[11] = biological target: MAP kinase-interacting serine/threonine-protein kinase 2 (Homo sapiens) (UniProt Q9HBH9); assay: Enzymatic radiometric [Km ATP] KinaseProfiler LeadHunter assay, kinase: Mnk2, catalogue number: 14-664KP The assay has been performed by Eurofins Discovery.; conditions: ATP concentration 120.0 uM, Test compound concentration 10.0 uM
Chain of MAP kinase-interacting serine/threonine-protein kinase 2 (Homo sapiens) (Q9HBH9 whole entry, looked up): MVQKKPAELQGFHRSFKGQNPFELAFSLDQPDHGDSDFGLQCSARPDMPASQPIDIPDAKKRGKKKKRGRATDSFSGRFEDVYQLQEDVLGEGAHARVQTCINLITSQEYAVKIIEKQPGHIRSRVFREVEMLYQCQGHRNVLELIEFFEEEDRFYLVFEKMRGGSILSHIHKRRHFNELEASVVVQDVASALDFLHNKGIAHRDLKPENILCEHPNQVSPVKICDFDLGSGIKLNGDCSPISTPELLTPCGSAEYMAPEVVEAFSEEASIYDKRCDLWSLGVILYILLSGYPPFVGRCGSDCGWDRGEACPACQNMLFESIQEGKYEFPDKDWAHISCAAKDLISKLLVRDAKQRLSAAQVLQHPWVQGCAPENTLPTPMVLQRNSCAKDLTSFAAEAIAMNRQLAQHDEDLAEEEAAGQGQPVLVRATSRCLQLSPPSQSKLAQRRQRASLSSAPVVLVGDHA

[12] = biological target: Serine/threonine-protein kinase PAK 2 (Homo sapiens) (UniProt Q13177); assay: Enzymatic radiometric [Km ATP] KinaseProfiler LeadHunter assay, kinase: PAK2, catalogue number: 14-481KP The assay has been performed by Eurofins Discovery.; conditions: ATP concentration 90.0 uM, Test compound concentration 10.0 uM
Chain of Serine/threonine-protein kinase PAK 2 (Homo sapiens) (Q13177 whole entry): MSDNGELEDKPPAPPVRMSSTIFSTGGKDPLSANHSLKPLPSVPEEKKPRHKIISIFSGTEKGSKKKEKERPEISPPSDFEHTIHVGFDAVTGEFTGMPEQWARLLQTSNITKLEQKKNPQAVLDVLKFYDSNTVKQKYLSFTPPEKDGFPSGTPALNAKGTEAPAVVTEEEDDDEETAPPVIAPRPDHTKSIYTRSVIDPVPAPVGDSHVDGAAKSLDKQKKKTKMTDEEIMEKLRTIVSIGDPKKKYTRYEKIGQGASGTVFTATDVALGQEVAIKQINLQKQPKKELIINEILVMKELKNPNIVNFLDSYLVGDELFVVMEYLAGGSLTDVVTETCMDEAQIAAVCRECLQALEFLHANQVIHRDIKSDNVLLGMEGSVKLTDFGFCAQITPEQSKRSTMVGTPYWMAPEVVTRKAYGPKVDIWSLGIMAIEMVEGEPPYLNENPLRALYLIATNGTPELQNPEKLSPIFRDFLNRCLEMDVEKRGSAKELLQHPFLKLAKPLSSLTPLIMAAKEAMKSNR

[13] = biological target: cAMP-dependent protein kinase catalytic subunit alpha (Homo sapiens) (UniProt P17612); assay: Enzymatic radiometric [Km ATP] KinaseProfiler LeadHunter assay, kinase: PKA, catalogue number: 14-440KP The assay has been performed by Eurofins Discovery.; conditions: ATP concentration 10.0 uM, Test compound concentration 10.0 uM
[14] = biological target: PI3K p110 beta/p85 alpha (Homo sapiens) (UniProt P27986+P42338); assay: Enzymatic radiometric [Km ATP] KinaseProfiler LeadHunter assay, kinase: PI3 Kinase (p110-beta/p85-alpha), catalogue number: 14-603KP The assay has been performed by Eurofins Discovery.; type: protein-complex assay; conditions: ATP concentration 200.0 uM, Test compound concentration 10.0 uM
Chain of PI3K p110 beta/p85 alpha (Homo sapiens) (P27986 2-724 limits assumed): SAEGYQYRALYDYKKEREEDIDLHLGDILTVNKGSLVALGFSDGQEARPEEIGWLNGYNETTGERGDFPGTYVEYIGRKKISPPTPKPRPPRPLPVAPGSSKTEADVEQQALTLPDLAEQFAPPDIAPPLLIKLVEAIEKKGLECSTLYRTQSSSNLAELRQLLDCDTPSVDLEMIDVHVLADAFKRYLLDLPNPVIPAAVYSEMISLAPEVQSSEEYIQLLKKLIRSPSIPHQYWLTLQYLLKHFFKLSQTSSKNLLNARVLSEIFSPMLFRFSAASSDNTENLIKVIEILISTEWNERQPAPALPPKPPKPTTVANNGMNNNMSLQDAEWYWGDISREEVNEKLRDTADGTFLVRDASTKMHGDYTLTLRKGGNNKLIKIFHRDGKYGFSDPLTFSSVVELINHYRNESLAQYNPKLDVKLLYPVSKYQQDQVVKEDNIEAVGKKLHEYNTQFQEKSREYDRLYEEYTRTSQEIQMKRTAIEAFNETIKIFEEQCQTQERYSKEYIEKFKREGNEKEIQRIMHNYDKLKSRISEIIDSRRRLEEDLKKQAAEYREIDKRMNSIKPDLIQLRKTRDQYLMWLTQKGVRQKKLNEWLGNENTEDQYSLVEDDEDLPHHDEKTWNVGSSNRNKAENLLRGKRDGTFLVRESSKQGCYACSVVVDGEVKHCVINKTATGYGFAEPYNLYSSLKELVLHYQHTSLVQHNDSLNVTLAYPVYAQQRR
Chain of PI3K p110 beta/p85 alpha (Homo sapiens) (P42338 whole entry partner): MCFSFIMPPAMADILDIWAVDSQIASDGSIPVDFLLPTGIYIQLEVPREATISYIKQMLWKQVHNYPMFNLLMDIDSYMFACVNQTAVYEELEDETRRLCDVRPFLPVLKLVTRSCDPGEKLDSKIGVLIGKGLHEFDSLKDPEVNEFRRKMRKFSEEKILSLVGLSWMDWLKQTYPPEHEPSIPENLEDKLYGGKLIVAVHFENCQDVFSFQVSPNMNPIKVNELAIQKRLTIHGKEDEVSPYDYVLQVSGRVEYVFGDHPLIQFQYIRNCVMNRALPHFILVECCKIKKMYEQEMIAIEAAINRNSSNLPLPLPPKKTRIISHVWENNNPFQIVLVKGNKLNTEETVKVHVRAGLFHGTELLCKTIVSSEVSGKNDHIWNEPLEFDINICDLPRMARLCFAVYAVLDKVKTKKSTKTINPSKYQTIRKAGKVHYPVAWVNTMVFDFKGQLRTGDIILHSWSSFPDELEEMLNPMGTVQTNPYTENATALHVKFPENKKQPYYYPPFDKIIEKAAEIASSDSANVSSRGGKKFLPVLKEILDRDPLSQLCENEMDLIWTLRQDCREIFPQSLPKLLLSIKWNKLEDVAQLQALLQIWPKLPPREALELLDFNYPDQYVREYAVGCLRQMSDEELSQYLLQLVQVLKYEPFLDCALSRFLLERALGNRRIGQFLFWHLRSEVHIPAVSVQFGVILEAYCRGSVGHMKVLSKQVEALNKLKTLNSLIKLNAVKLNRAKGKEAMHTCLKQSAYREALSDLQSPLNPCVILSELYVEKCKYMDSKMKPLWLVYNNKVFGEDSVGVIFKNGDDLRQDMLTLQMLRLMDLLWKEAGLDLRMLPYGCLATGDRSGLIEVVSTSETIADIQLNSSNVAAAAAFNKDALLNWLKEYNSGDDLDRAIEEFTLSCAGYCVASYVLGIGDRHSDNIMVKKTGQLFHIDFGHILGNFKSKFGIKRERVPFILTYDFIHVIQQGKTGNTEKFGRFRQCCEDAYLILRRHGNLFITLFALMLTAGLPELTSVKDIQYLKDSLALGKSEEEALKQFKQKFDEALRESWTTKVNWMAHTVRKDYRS

[15] = biological target: Tyrosine-protein kinase Fyn (Homo sapiens) (UniProt P06241); assay: Enzymatic radiometric [Km ATP] KinaseProfiler LeadHunter assay, kinase: Fyn, catalogue number: 14-441KP The assay has been performed by Eurofins Discovery.; conditions: ATP concentration 70.0 uM, Test compound concentration 10.0 uM

Activity [1]: 111% and 106%
Activity [2]: 82% and 106%
Activity [3]: 55% and 61%
Activity [4]: 100% and 99%
Activity [5]: 101% and 102%
Activity [6]: 91% and 90%
Activity [7]: 90% and 89%
Activity [8]: 103% and 106%
Activity [9]: 98% and 114%
Activity [10]: 52% and 57%
Activity [11]: 77% and 83%
Activity [12]: 95% and 99%
Activity [13]: 92% and 93%
Activity [14]: 92% and 84%
Activity [15]: 56% and 55%
Structure (SMILES): CC(C)[C@@H](Nc1ncnc2[nH]c(-c3cnn(C)c3C#N)cc12)c1ccc2c(n1)OCCO2
